Like-named read-outs stand apart in the source and are kept apart here.
Legend:
[1] = PAMPA BBB permeability (brain polar lipid coated filter); assay type: in vitro ADME; conditions: for MR (membrane retention): pH 7.4, 5 h; for Papp at 5 h, 500 μM: PAMPA
Experimental: The donor solution (150 μL) was then added to each well of the filter plate. 300 μL of the solution (50 % DMSO in phosphate buffer) were added to each well of the acceptor plate. The sandwich plate was assembled and incubated for 5 h at room temperature. After the incubation time, plates were separated, samples were taken from both the donor and acceptor wells, and the compound concentration was measured by UV/LC–MS. All compounds were tested in three independent experiments. […] (3) Papp=VD×VA/VD+VAAt-ln(1-r)
Equation (3): Experimental apparent permeability (Papp) calculation as described in the literature modified to yield values in cm s^−1 [67, 68]. […] Drug concentration is estimated by using the peak area integration. (4) %MR=[r-D+A]/Eq×100
Equation (4): Membrane retention calculation: r is the ratio between drug concentration in the acceptor and equilibrium solutions. D, A, and Eq represent the drug concentration in the donor, acceptor, and equilibrium solutions, respectively.

full-length human PARP1 = target: T1, full-length human PARP1 (Homo sapiens, UniProt P09874); test: PARP1 enzymatic assay (homogeneous NAD+ consumption assay); assay type: biochemical; conditions: 5 nM PARP1, 500 nM NAD+, 30 min
T1 construct: Briefly, full‐length human PARP1 was produced in E. coli Rosetta2 (DE3); made in house; host or cells: E. coli Rosetta2 (DE3)
Experimental: PARP1 was expressed and purified as described in the literature. Briefly, full‐length human PARP1 was produced in E. coli Rosetta2 (DE3). The cells were harvested by centrifugation, and re‐suspended in lysis buffer containing 50 mM HEPES pH 8.0, 500 mM NaCl, 10 % glycerol, 0.5 mM TCEP and 10 mM imidazole. The sample was lysed using sonication in the presence of DNAse1 and 3‐aminobenzamide, centrifuged at 18,000 rpm for 1 h and the supernatant was filtered. The clarified sample was loaded to a HiTrap^TM IMAC column (Cytiva), washed with lysis buffer, then with a similar buffer containing 1 M NaCl, and finally with lysis buffer containing 25 mM imidazole before eluting the protein with 500 mM imidazole. The eluted sample was then diluted to reduce NaCl concentration to 250 mM, and loaded to a HiTrap Heparin column (Cytiva). The column was washed with 50 mM HEPES, 250 mM NaCl, 10 % glycerol, 1 mM EDTA, 0.1 mM TCEP, pH 7.5. and the sample was eluted using a gradient with a similar buffer containing 1 M NaCl. Fractions were analyzed by SDS‐PAGE and those containing protein were pooled and concentrated before aliquoting and stored at −70 °C.
IC50 was determined using homogeneous NAD^+ consumption assay. 5 nM PARP1 was incubated with each compound in log half dilution series for 30 min in 50 mM Tris pH 8.0, 5 mM MgCl2, 0.2 mg mL^−1 BSA, 10 μg mL^−1 activated DNA and 500 nM NAD^+. The reactions were performed in quadruplicates and resulting IC50 curves were fitted to a sigmoidal dose‐response curve (four variables) using GraphPad Prism version 8.02. Each experiment was repeated three times from which pIC50±SEM was calculated. Compounds with IC50 above 1 μM were measured only once.

[2] = pH 7.4, pH 7.4, donor 500 μM, 5 h, room temperature, read-out: PAMPA BBB Papp

T1 sequence (P09874 whole entry): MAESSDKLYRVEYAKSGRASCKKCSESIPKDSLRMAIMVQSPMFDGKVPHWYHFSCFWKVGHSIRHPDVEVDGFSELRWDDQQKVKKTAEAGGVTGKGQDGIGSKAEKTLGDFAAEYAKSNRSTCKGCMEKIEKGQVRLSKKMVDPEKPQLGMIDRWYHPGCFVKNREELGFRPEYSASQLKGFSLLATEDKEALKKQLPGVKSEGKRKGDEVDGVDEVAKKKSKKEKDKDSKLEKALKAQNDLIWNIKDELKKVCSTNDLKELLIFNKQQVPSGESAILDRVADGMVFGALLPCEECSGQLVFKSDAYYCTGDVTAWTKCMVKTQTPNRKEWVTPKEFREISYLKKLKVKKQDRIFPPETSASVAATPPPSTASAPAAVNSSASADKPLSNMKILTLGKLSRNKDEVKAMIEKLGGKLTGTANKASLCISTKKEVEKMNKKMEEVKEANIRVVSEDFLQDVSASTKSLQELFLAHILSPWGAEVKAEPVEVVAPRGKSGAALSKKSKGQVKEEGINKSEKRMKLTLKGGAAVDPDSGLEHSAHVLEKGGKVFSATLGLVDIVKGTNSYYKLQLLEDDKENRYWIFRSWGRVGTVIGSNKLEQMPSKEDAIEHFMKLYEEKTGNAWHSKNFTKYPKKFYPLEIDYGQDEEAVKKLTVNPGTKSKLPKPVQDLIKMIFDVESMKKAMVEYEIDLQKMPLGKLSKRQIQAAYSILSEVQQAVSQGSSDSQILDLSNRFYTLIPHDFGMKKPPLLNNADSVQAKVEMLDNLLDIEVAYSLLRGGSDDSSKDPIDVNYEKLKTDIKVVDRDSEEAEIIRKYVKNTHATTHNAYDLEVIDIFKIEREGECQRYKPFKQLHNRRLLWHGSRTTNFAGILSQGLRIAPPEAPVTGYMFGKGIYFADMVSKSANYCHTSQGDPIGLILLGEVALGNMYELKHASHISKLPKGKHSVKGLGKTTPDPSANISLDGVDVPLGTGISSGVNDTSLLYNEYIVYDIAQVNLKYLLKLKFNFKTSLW

| SMILES | MR (membrane retention) ([1]; PAMPA BBB) [%] | IC50 (result in words) (full-length human PARP1) | IC50 (full-length human PARP1; averaged on three replicas) [nM] | further results |
| --- | --- | --- | --- | --- |
| O=C(c1cc(Cc2n[nH]c(=O)c3ccccc23)ccc1F)N1CCN(C(=O)C2CC2)CC1 [Olaparib, reference compound] | 3.0 |  |  |  |
| Cc1cc2cc(C(=O)OCc3ccc(C(=O)N4CCOCC4)c(C)c3)ccc2c(=O)[nH]1 [Row514, [3‐Methyl‐4‐(morpholine‐4‐carbonyl)phenyl]methyl 3‐methyl‐1‐oxo‐1,2‐dihydroisoquinoline‐6‐carboxylate] | 0.8 |  |  | BBB permeability relative to reference Olaparib ([1]; PAMPA BBB, ratio of Papp): approximately 20 times; Papp at 5 h, 500 μM [1, 2]: 0.325 ×10⁻⁶ cm/s; IC50 (full-length human PARP1; IC50 above 1 μM measured once): 19000 nM |
| O=c1[nH]nc(-c2ccc(Br)cc2)c2ccccc12 [Row86 (I), 4‐(4‐bromophenyl)‐2H‐phthalazin‐1‐one] |  | sub‐micromolar | 395 |  |
| C#CCCNCc1ccc(-c2cc(F)c3c(c2)C(=O)NCC3)c(C)c1 [Row528, 7‐(4‐{[(But‐3‐yn‐1‐yl)amino]methyl}‐2‐methylphenyl)‐5‐fluoro‐1,2,3,4‐tetrahydroisoquinolin‐1‐one] |  | No inhibition |  |  |
| CC1CC1C(=O)c1ccc(-c2n[nH]c(=O)c3ccccc23)cc1 (stereo not drawn) [Row745(2), 4‐[4‐(2‐Methylcyclopropanecarbonyl)phenyl]‐1,2‐dihydrophthalazin‐1‐one] | 3.6 | sub‐micromolar | 908 | Papp at 5 h, 500 μM ([1]; pH 7.4, PAMPA BBB, read-out: BBB permeability (diffusion)): 2.1 ×10⁻⁶ cm/s; Papp at 5 h, 500 μM [1, 2]: 2.1 ×10⁻⁶ cm/s |
| Cc1ccc(Cn2cc(CCN)c3c(C#N)cccc32)cc1 [Row847, 3‐(2‐Aminoethyl)‐1‐[(4‐methylphenyl)methyl]‐1H‐indole‐4‐carbonitrile] |  |  |  | IC50 (full-length human PARP1; IC50 above 1 μM measured once): 16000 nM |
| CCCC(O)c1ccc(-c2n[nH]c(=O)c3ccccc23)cc1 (stereo not drawn) [Row86, 4‐[4‐(1‐Hydroxybutyl)phenyl]‐1,2‐dihydrophthalazin‐1‐one] |  | sub‐micromolar | 755 |  |
| Cc1cc(COC(=O)c2c(C)ccc3[nH]ncc23)ccc1C(=O)N1CCOCC1 [Row26, [3‐Methyl‐4‐(morpholine‐4‐carbonyl)phenyl]methyl 5‐methyl‐1H‐indazole‐4‐carboxylate] |  | No inhibition |  |  |
| Cc1cc(CN)ccc1-c1cc(F)c2c(c1)C(=O)NCC2.Cl [Row528 (I), 7‐[4‐(Aminomethyl)‐2‐methylphenyl]‐5‐fluoro‐1,2,3,4‐tetrahydroisoquinolin‐1‐one hydrochloride] |  | No inhibition |  |  |

Source: publication PMC11475289, “Synthetically accessible de novo design using reaction vectors: Application to PARP1 inhibitors” (Molecular Informatics, 2024)
